Data: patent US10307498B2, “Cleaning and disinfecting composition” (American Sterilizer Company, priority 2015, dated 2019)

Assay: Stability of peracetic acid over a single disinfection cycle at different disinfection solution temperatures, FIGS. 4A-4D
Assay type: physicochemical
Conditions: PAA alone or combined with builders/part (B)
Source text: FIGS. 4A-4D are graphs that show the stability of peracetic acid over the time required for a single disinfection cycle, at different disinfection solution temperatures, and as a function of the presence or absence of two different builders formulations as well as the supplemental medium (B) of the present invention.
In the following Examples 6-8, parts (A) and (B) are as described above for Examples 1-5. Builders 1 contains two sodium phosphates, benzotriazole, tetrasodium ethylene diamine tetraacetate, a sodium molybdate, sodium hydroxide, an ethoxylated polyoxypropylene, a polyacrylate, a sodium phosphate, and water. Builders 2 contains a sodium phosphate, a sodium benzotriazole and a sodium salt of ethylene diamine tetraacetic acid.
FIGS. 4A-4D show the stability of peracetic acid over the time required for a single disinfection cycle (stability), at different disinfection solution temperatures when used alone (FIG. 4A), or in combination with prior art Builders 1 (FIG. 4B) or Builders 2 (FIG. 4C) or the supplemental medium part (B) of the present invention (FIG. 4D). The trend of each line can be used to understand the kinetics of stability (or conversely, the rate and amount of degradation of PAA). […]

Structure (SMILES): CC(=O)OO [PAA, peracetic acid]
- stability of PAA solution: relatively stable
